{"source": "patent US20220243230A1", "about": "“BIOCONVERSION OF 4-COUMARIC ACID TO RESVERATROL” (Conagen Inc., priority 2022, published 2022)", "test_system": "yeast cultures", "assay": "effect of 4-coumaric acid at different concentrations on yeast cultures", "format": "cell-based, S. cerevisiae", "settings": "strains CNFS109 and CNFS110, 48 hours, 30 °C, FIG. 1", "experimental": "The strains of Example 1 were tested in microcultures with 500 mg/L of 4-coumaric acid fed 24 hours post inoculation. CNFS109 and CNFS110 were inoculated into 50 ml of synthetic drop out medium without uracil (Sigma-Aldrich, St. Louis, Missouri) and incubated overnight under shaking conditions. Saturated culture was dispensed into individual wells in 24 well plates that contained 2 ml of synthetic drop out medium without uracil. 4-coumaric acid dissolved in acidified ethanol (20 g/L stock, in ethanol : water : HCl=50:49:1) was added to each well, to form media having 4-coumaric concentrations of 0 mg/L, 100 mg/L, 500 mg/L, 1000 mg/L, and 2000 mg/L, respectively. All experiments were performed in triplicate. The cultures were incubated under shaking for 48 hours (250 rpm, 30 ° C.).\nThe bar graph of FIG. 1 illustrates the effect of 4-coumaric acid at different concentrations on yeast cultures. […] Due to the toxicity associated with high concentrations of 4-coumaric acid which inhibited yeast from growing and metabolizing, resveratrol bioconversion was only observed when 4-coumaric was added to the yeast culture at relatively lower concentrations (FIG. 2).", "data": [{"smiles": "O=C(O)/C=C/c1ccc(O)cc1", "note": "[4-coumaric acid]", "values": [{"measurement": "survival rate of yeast culture", "setting": "1 g/L or 2 g/L added to the culture", "value": "declined"}, {"measurement": "impact due to 4-coumaric acid toxicity on yeast cultures", "setting": "concentration of up to 500 mg/L", "value": "little or no impact"}]}]}
